Experimental data taken from PMC4609890, “Discovery of novel small molecule modulators of Clavibacter michiganensis subsp. michiganensis” (Frontiers in Microbiology, 2015).
Converted amounts (≈) assume the structure as drawn.

Columns and labels:
[1] = test system: Clavibacter michiganensis subsp. michiganensis (Cmm); assay: Minimum inhibitory concentration (MIC) for Cmm growth; type: cell-based; details: read-out: MICs
Experimental: Seventy-seven selected compounds were re-ordered from ChemBridge in a 96-well format as a powder. The compounds were dissolved in 100 μl DMSO and stored at -80°C until used. […] In addition, ability of Cmm to develop resistance to selected compounds was tested. […]

[2] = test system: Clavibacter michiganensis subsp. michiganensis (Cmm); assay: Resistance evaluation by single step at a lethal dose; type: cell-based; details: 5 days on NBY agar with 2X MIC, 1 × 10^9 CFU
Experimental: (§1) Single step and sequential passage resistance assays were performed as described previously with few modifications ([Ling et al., 2015]). Eleven of the 12 top hit compounds were tested in this experiment and one could not be resynthesized. […] The MBCs for each of these compounds were determined as described previously ([Ling et al., 2015]).
Cmm grown in NBY medium at 28°C for 48 h was centrifuged at 4,700 × g for 15 min at room temperature. Supernatant was discarded and bacteria were resuspended in sterile water to a concentration of 2 × 10^10 CFU/ml). Compounds (2× MIC) were mixed with […] of molten NBY agar medium and transferred to duplicate wells of a 24-well culture plate. Agar in the plate was allowed to solidify in the dark. Fifty microlitre of Cmm culture (1 × 10^9 CFU) was added to test wells, dried in the dark at room temperature, and incubated at 28°C for 5 days in the dark. Bacteria spread on NBY agar with 50 μg/ml kanamycin or NBY agar itself was used as positive and negative controls, respectively. After 5 days of incubation, any colonies that developed were assessed for resistance to the test compounds by determining MIC and the MBC as noted above.

[3] = test system: Clavibacter michiganensis subsp. michiganensis (Cmm); assay: Minimum bacteriocidal concentration (MBC) for Cmm; type: cell-based; details: read-out: MBCs
Experimental: (§2) Seventy-seven selected compounds were re-ordered from ChemBridge in a 96-well format as a powder. The compounds were dissolved in 100 μl DMSO and stored at -80°C until used. […] In addition, ability of Cmm to develop resistance to selected compounds was tested.
as §1

[4] = test system: Clavibacter michiganensis subsp. michiganensis (Cmm); assay: Resistance evaluation by sequential passage at sub-lethal doses; type: cell-based; details: 15 passages in liquid NBY at 0.75X MIC
Experimental: as §1
Clavibacter michiganensis subsp. michiganensis cultures grown in NBY broth medium at 28°C for 24 h were suspended in fresh NBY broth and normalized to an OD600 of 0.01 (5 × 10^6 CFU/ml). One-hundred microliters fresh culture was transferred to duplicate wells of a 96-well microtiter plate each containing 0.75× MIC of a test compound (concentration allowing >50% growth inhibition). Cmm cultured in 20 μg/ml chloramphenicol, 50 μg/ml kanamycin, or 2% DMSO, or non-amended NBY broth were used as controls. The bacteria were incubated at 28°C, 150 rpm, for 24 h in the dark. Following incubation, plates were centrifuged at 2,100 × g for 5 min at room temperature. The supernatant was discarded, bacteria were resuspended in 100 μl fresh NBY and transferred into a new 96-well plate containing 0.75× MIC of the same small molecule. This procedure was repeated 14 times. Following 15 passages, bacterial suspensions were assessed for resistance to the test compound by assessing MIC and MBC as noted above.

[5] = test system: Cmm strains; assay: Secondary screen kinetic growth inhibition of Cmm strains; type: cell-based, Clavibacter michiganensis subsp. michiganensis; details: kinetic growth 24 h
Experimental: as §2
(§3) Screening for growth inhibition of Cmm strains, plant beneficial bacteria and human gut bacteria was set up similarly to the initial screen using 1 μl of 2 μmol suspensions of each compound. Plates were incubated in a Sunrise^TM Tecan microplate reader for kinetic measurement of growth every 15 min for 24 h. Growth curves were analyzed in DB interface software and the effect of each compound on growth was evaluated based on the ratio of area under growth curve (compound/control) as “no significant effect (ratio > 0.5),” “inhibition (ratio ≤ 0.5),” “static (ratio = 0, bacterial growth revived after streak on a fresh NBY plate)” and “cidal (ratio = 0, bacterial growth not revived)” ([Wallace et al., 2011]).

[6] = test system: Bacillus subtilis GB03; assay: Secondary screen kinetic growth inhibition of B. subtilis; type: cell-based; details: 200 μM
Experimental: as §2, §3

[7] = test system: Gram-negative bacteria tested; assay: Secondary screen kinetic growth inhibition of Gram-negative bacteria; type: cell-based; details: 200 μM
Experimental: as §2, §3

[8] = test system: plant beneficial bacteria and human gut bacteria; assay: Secondary screen on plant beneficial bacteria and human gut bacteria (antibacterial spectrum); type: cell-based; details: compared with other 11 compounds; data not shown
Experimental: as §2, §3

[9] = test system: Cmm BL-Cmm17; assay: Bioluminescent Cmm tomato seedling infection assay; type: in vivo; details: seeds infested with BL-Cmm17, compound applied to seed, 8-days-old seedlings plated
Experimental: A bioluminescent Cmm strain, BL-Cmm17, was used to monitor the effect of selected small molecules on Cmm infection of tomato seedlings in vivo ([Xu et al., 2010]). Briefly, tomato seeds (cv. OH9242) were infested by soaking in BL-Cmm17 suspension (10^8 CFU/ml) in a 100-ml sterile beaker. The beaker was placed in a Nucerite Desiccator (Nalge Sybron Corporation, Rochester, NY, USA), and a vacuum was applied for 5 min using an Air Cadet pump (Barnant, Barrington, IL, USA) with a maximum of 18 lb/in^2 pressure. Seeds treated similarly with sterilized water were used as controls. After inoculation, seeds were air-dried and one seed was placed in a 1.2 ml library tube containing 400 μl of 1% water agar; tubes were placed in wells of a 96-well plate. The selected compound (1 μl of 2 μmol in 50 μl water) was applied to each seed and the plate was incubated at 25°C under 8 h/16 h light/dark conditions. There were three replicate seeds/plate per treatment. Bioluminescence images were taken using an in vivo imaging system (IVIS Model 100; PerkinElmer, Waltham, MA, USA) 3 and 8 days later. Eight-days-old seedlings were ground in potassium phosphate buffer and extracts were serially diluted and plated on NBY to assess the presence of Cmm.

SMILES	MIC [1] [µM]	Resistant colonies after incubation at lethal (2X MIC) concentration [2]	MBC [3] [µM]	Resistant colonies after growth at sub-lethal (0.75X MIC) concentration [4]	Effect on Cmm growth [5]	Effect on B. subtilis growth [6]	Effect on growth of Gram-negative bacteria tested [7]	Antibacterial spectrum [8]	Cmm growth reduction in tomato seedlings [9]
COc1cccc(-c2ccccc2NC(=O)C2CCN(Cc3ccc(OC)cc3F)CC2)c1 [Compound 1]	25 (≈ 11.2 µg/mL)	None	25 (≈ 11.2 µg/mL)	None	–	–	–	–	–
CN(Cc1nc2ccccc2[nH]1)Cc1c[nH]nc1-c1ccc(-c2ccccc2)cc1 [Compound 2]	25 (≈ 9.84 µg/mL)	None	50 (≈ 19.7 µg/mL)	None	–	–	–	–	–
Cc1cc(O)ccc1Nc1nc(-c2cccs2)cs1 [Compound 3]	50 (≈ 14.4 µg/mL)	None	50 (≈ 14.4 µg/mL)	None	cidal (cidal (ratio = 0, bacterial growth not revived))	cidal (cidal (ratio = 0, bacterial growth not revived))	not	–	–
CC(C)Cc1ccc(CN2CCCC(NC(=O)CCn3c(CO)nc4ccccc43)C2)cc1 (stereo not drawn) [Compound 4]	100 (≈ 44.9 µg/mL)	None	100 (≈ 44.9 µg/mL)	None	–	–	–	–	–
CC1CCC(C(C)C)C(OC(=O)Cn2c[n+](CC(=O)OC3CC(C)CCC3C(C)C)c3ccccc32)C1 (stereo not drawn) [Compound 5]	5	None	5	None	–	–	–	broader antibacterial spectrum	–
O=C(Nc1cccc(-c2cscn2)c1)C1CCN(C/C=C/c2ccc(F)cc2)CC1 [Compound 6]	50 (≈ 21.1 µg/mL)	None	50 (≈ 21.1 µg/mL)	None	–	–	–	–	–
Cc1ccnc(Nc2nc(-c3ccc(O)c(O)c3)cs2)c1 [Compound 7]	50 (≈ 15 µg/mL)	None	50 (≈ 15 µg/mL)	None	cidal (cidal (ratio = 0, bacterial growth not revived))	cidal (cidal (ratio = 0, bacterial growth not revived))	not	–	–
CCOC(=O)N1CCN(CC(O)COc2ccc(C3CCCCC3)cc2)CC1 (stereo not drawn) [Compound 8]	50 (≈ 19.5 µg/mL)	None	50 (≈ 19.5 µg/mL)	None	–	–	–	–	–
CCCOc1ccc(C(=O)C2=C(O)C(=O)N(CCCN(C)C)C2c2ccc(Cl)cc2)cc1C (stereo not drawn) [Compound 9]	50 (≈ 23.5 µg/mL)	None	100 (≈ 47.1 µg/mL)	None	–	–	–	–	–
COc1cccc(-c2ccc(NC(=O)C3CCCN(Cc4cccc(O)c4)C3)cc2)c1 (stereo not drawn) [Compound 12]	12.5 (≈ 5.21 µg/mL)	None	25 (≈ 10.4 µg/mL)	None	–	–	–	–	over 0.5 log
